Results published in US6620841B1, “Aromatic heterocycle compounds having HIV integrase inhibiting activities” (Shionogi & Co., Ltd., priority 1998, dated 2003).

Assays:
Type in all cases: cell-based
HIV-2 Rod = assay: Anti-HIV/SIV activity in infected Molt-4 cells, virus amount by RT activity; settings: RT activity of supernatant at 5 days postinfection
Protocol: (§1) (1) Molt-4 cells (2×10^6 cells) were infected with HIV-1 NL432 (4×10^6 cpm), HIV-2 Rod (8×10^6 cpm), SIVmac MA239 (8×10^6 cpm) and SIVagm SA212 (8×10^6 cpm), and incubated for 1 hr at room temperature.
(§2) (2) Preparation of HIV-1 Rod: HIV-2 Rod was infected to M8166 cells (1×10^6 cells). The cells were cultured in 10 ml RPMI medium supplemented with 10% fetal bovine serum in CO2 incubator at 37° C. After apparent giant cells were observed, the cells were removed by centrifugation and then the supernatant was filtrated by 0.45 μm filter, measured RT activity, and stored at −80° C. as HIV-2 stock virus.
(§3) (2) The cells were washed twice to remove the viruses and suspended in 10 ml RPMI medium supplemented with 10% fetal bovine serum. The infected cells (100 μl) were plated in 96 well microtiter plates containing with the serial 5 fold dilution of compounds (100 μl) and cultured in CO2 incubator at 37° C.
(§4) (3) The supernatant at 5 days postinfection was harvested and measured the amount of the virus by RT activity.
(§5) Preparation of the solution for RT assay:
(§6) A reaction mixture (90 μl) were contained 50 mM Tris-HCl, pH 8.3, 150 mM KCl, 10 mM MgCl2, 0.1% Nonidet P-40, 10 mM DTT (dithiothreitol), 5 μg/ml poly(rA), 5 μg/ml (dT)12-18 and 1 μCi [^3H] dTTP at final concentration after mixture of a sample (10 μl).
(§7) The procedure of RT assay:
(§8) 1. 10 μl of sample was plated to 3 wells of 96 well microtiter plate (triplicate assay).
(§9) 2. Reaction mixture (90 μl) chilled at 4° C. was added to each well, mixed and then incubate at 37° C. for 3 hrs.
(§10) 3. After incubation, the plate was chilled on ice, and passed through a DEAE-Filtermat using cell harvester. The filter was washed with 4.5% Na2HPO4 (20 sec) and H2O (10 sec).
(§11) 4. The filter was dried at 95° C. for 15 min.
(§12) 5. 10 ml of scintilator was added and sealed.
(§13) 6. Radioactivity was measured by LKB Beta Plate scintillation spectroscopy.
(§14) 7. RT activity (cpm/ml) was calculated from average of three wells.

SIVmac MA239 = assay: as above; settings: RT activity of supernatant at 5 days postinfection
Protocol: as §1
as §2, with “(3)” for “(2)”, “SIVmac MA239: SW480 cells were cultured in DMEM medium supplemented with 10% fetal bovine serum using 25 cm^2 flask. SIVmac MA239 infectious molecular DNA (40 μg), pMA239, transfected to the cells by calcium phosphate coprecipitation method, and the supernatant (2 ml) at 2-3 days post-transfection” for “HIV-1 Rod: HIV-2 Rod”, “CEMX174” for “M8166”, “SIVmac” for “HIV-2”
as §3, §4, §5, §6, §7, §8, §9, §10, §11, §12, §13, §14

HIV-1 NL432 = assay: as above; settings: RT activity of supernatant at 5 days postinfection
Protocol: as §1
as §2, with “(1)” for “(2)”, “NL432: SW480 cells were cultured in DMEM medium supplemented with 10% fetal bovine serum using 25 cm^2 flask. HIV-1 infectious molecular DNA (40 μg), pNL432, transfected to the cells by calcium phosphate coprecipitation method, and the supernatant (2 ml) at 2-3 days post-transfection” for “Rod: HIV-2 Rod”, “HIV-1” for “HIV-2”
as §3, §4, §5, §6, §7, §8, §9, §10, §11, §12, §13, §14

SIVagm SA212 = assay: as above; settings: RT activity of supernatant at 5 days postinfection
Protocol: as §1
(4) Preparation of SIVagm SA212: SW480 cells were cultured in DMEM medium supplemented with 10% fetal bovine serum using 25 cm^2 flask. SIVagm SA212 infectious molecular DNA (40 μg), pSA212, transfected to the cells by calcium phosphate coprecipitation methods, and the supernatant (2 ml) at 2-3 days post-transfection was infected to M8166 cells (1×10^6 cells). The cells were cultured in 10 ml RPMI medium supplemented with 10% fetal bovine serum in CO2 incubator at 37° C. Every 3 days, the cells were separated from the supernatant by centrifugation and continued culture with new medium. The each supernatant was filtrated by 0.45 μm filter, measured RT activity, and stored at −80° C. as SIVagm stock virus.
as §3, §4, §5, §6, §7, §8, §9, §10, §11, §12, §13, §14

[1] = system: feline immunodeficiency virus (FIV TM-2 strain); assay: Anti-FIV activity in MYA-1 feline T-cells, virus amount by RT activity; settings: FIV TM-2 in MYA-1 cells, RT activity at 10 days postinfection
Protocol: (1) The serial 5 fold diluted samples were plated in 24 well microtiter plate. Feline T-cell lines (MYA-1 cells: 4×10^5 cells/well) and feline immunodeficiency virus (FIV TM-2 strain: 3000 cpm/well) were added to each well. The cells were cultured with 1.5 ml RPMI medium supplemented with 10% fetal bovine serum, 2 μg/ml polybrene, 100 unit/ml human recombinant IL-2 and 50 μM 2-mercaptoethanol in CO2 incubator at 37° C.
1. Preparation of FIV TM-2: FIV TM-2 was infected to MYA-1 cells (1×10^6 cells). The cells were cultured in 10 ml RPMI medium supplemented with 10% fetal bovine serum, 2 μg/ml polybrene, 100 unit/ml human recombinant IL-2 and 50 μM 2-mercaptoethanol in CO2 incubator at 37° C. Every 1-2 days, the cells were separated from the supernatant by centrifugation and continued culture with new medium. Each of the supernatant was filtrated by 0.45 μm filter, measured RT activity, and stored at as −80° C. as FIV stock virus.
(2) Every 1-2 days, the supernatants were measured the amount of the virus by RT activity (as same as experimental example 2).

CC(C)c1nc(COC(N)=O)n(Cc2ccncc2)c1Sc1cc(Cl)cc(Cl)c1 [S-1153]
Anti-HIV/SIV activity EC50, HIV-2 Rod (HIV-2 Rod): >4000 ng/mL | Anti-HIV/SIV activity EC50, SIVmac (SIVmac MA239): >4000 ng/mL | Anti-HIV/SIV activity EC50, HIV-1 NL432 (HIV-1 NL432): 0.77 ng/mL | Anti-HIV/SIV activity EC50, SIVagm (SIVagm SA212): 1500 ng/mL | EC50 [1]: >5000 ng/mL
